Experimental data: patent US9238620B1, “Pharmaceutical uses of sulfur-containing compound” (NATIONAL SUN YAT-SEN UNIVERSITY, priority 2014, dated 2016)

Experiments:
[1] = system: JNK1/2; test: Western blotting in A549 cells, JNK1/2 phosphorylation; format: cell-based, Human; conditions: A549 cells, 20, 30, or 40 μg/mL, 24 h
Protocol: (§1) A549 cells were plated in 10-cm dishes at a density of 3×10^6 cells per dish and incubated with 20, 30 or 40 μg/mL dihydroaustrasulfone alcohol in F-12 containing 1% (v/v) FBS for 24 h. The cells were collected, lysed in a lysis solution, and then incubated at 25° C. for 10 min. Total proteins were separated with SDS-PAGE before being transferred to PVDF membranes. The membranes were blocked with 5% (v/v) nonfat dry milk in PBS-Tween 20 for one hour and changed to an appropriate dilution of specific primary antibodies in TBS-T buffer overnight at 4° C. The blots were then incubated with horseradish peroxidase-linked secondary antibody for 1 h and then developed with the […] (ECL) reagent and exposed to Hyperfilm (Amersham, Arlington Height, Ill., USA). The data were analyzed by Gel-Logic 200 Imaging Systems, Molecular Imaging Software.

[2] = system: MMP-9; test: Gelatin zymography of A549 conditioned medium, MMP-9; format: cell-based, Human; conditions: A549 cells, 20, 30, or 40 μg/mL, 24 h
Protocol: (§2) Phytomedicine 2012, 19, 768-778). Briefly, the culture medium was electrophoresed (80 V for 120 min) in an 8% SDS-PAGE gel containing 0.1% gelatin. The gel was then washed at room temperature in a solution containing 2.5% (v/v) Triton X-100 with two changes and subsequently transferred to a reaction buffer for enzymatic reaction containing 1% NaN3; 10 mM CaCl2; and 40 mM Tris-HCl, pH 8.0; at 37° C. with shaking overnight (for 12-15 h). Finally, the MMP gel was stained for […] with 0.25% (w/v) Coomassie blue in 10% acetic acid (v/v) and 20% methanol (v/v) and destained in 10% acetic acid (v/v) and 20% methanol (v/v).

[3] = system: AKT; test: Western blotting in A549 cells, AKT phosphorylation; format: cell-based, Human; conditions: A549 cells, 20, 30, or 40 μg/mL, 24 h
Protocol: as §1

[4] = system: A549 cells; test: MTT cell proliferation (cytotoxicity) assay; format: cell-based, Human
Protocol: The MTT assay was performed in the A549 cell lines to measure the cytotoxicity of dihydroaustrasulfone alcohol. All cell lines were seeded in 96-well plates with 2×10^4 cells/well in culture medium. Dihydroaustrasulfone alcohol was dissolved in PBS. The cells were treated with various concentrations of dihydroaustrasulfone alcohol as indicated in each figure. After 24 h, the number of viable cells was determined. Then, 5 mg/mL MTT was added to each well, and the plate was incubated at 37° C. for 3 h. The medium was removed, and 50 μL DMSO was added. The absorbance at 590 nm was measured for each well on an ELISA reader. The data are presented as the mean±SEM of three independent experiments.

[5] = Lewis lung carcinoma-bearing tumor model, body weight; format: in vivo, C57BL/6J mice; conditions: 8 or 16 mg/kg IP, days 8 or 14
Protocol: (§3) The animal experiments were approved by the Institutional Animal Care and Use Committee of China Medical University (approval ID: 102-194-C). All animal care followed the institutional animal ethical guidelines of China Medical University. C57BL/6J male mice (average 25-28 g; 6 weeks old) were obtained from the Laboratory Animal Center, College of Medicine, National Taiwan University (Taipei, Taiwan). The C57BL/6J mice were kept on a 12 h light/dark cycle at 25° C. C57BL/6J mice were subcutaneously implanted with LLC cells (7×10^5 cells in 100 μL). The treatment of dihydroaustrasulfone alcohol start while all the tumors volume were larger than 100 mm^3. Eighteen mice were randomly assigned to three treatment groups (6 animals per group). Group I (untreated group) was subcutaneously grafted with LLC cells and given vehicle solvent. Group II was grafted with LLC cells and then treated with dihydroaustrasulfone alcohol (8 mg/kg). Group III was grafted with LLC cells and then treated with dihydroaustrasulfone alcohol (16 mg/kg). The dihydroaustrasulfone alcohol was diluted in normal saline and administered by IP. Body weight and tumor volume were measured every week after cell injection. The tumor width (W) and length (L) were measured every week by calipers, and the tumor volume was calculated as L×W2×0.52. The mice were treated daily for 2 weeks and then sacrificed.

[6] = system: ERK1/2; test: Western blotting in A549 cells, ERK1/2 phosphorylation; format: cell-based, Human; conditions: A549 cells, 20, 30, or 40 μg/mL, 24 h
Protocol: as §1

[7] = system: A549 cells; test: Wound healing assay; format: cell-based, Human; conditions: 30 and 40 μg/mL, 18 h
Protocol: For cell motility determination, A549 cells (2×10^5 cells/mL) were seeded in a 12-well tissue culture plate. After one day, the center of the cell monolayers was scraped with a sterile micropipette tip to create a straight zone (gap) of constant width. Then, each well was washed with PBS, and A549 cells were exposed to various concentrations of dihydroaustrasulfone alcohol (20, 30 or 40 μg/mL). Wound closure was monitored and photographed at 0 h and 18 h with a Nikon inverted microscope. To quantify the migrated cells, pictures of the initial wounded monolayers were compared with the corresponding pictures of cells at the end of the incubation. Artificial lines fitting the cutting edges were drawn on pictures of the original wounds and overlaid on the pictures of cultures after incubation. Cells that had migrated across the white lines were counted in six random fields from each triplicate treatment.

[8] = system: FAK; test: Western blotting in A549 cells, FAK phosphorylation; format: cell-based, Human; conditions: A549 cells, 20, 30, or 40 μg/mL, 24 h
Protocol: as §1

[9] = system: MMP-2; test: Gelatin zymography of A549 conditioned medium, MMP-2; format: cell-based, Human; conditions: A549 cells, 20, 30, or 40 μg/mL, 24 h
Protocol: as §2

[10] = system: A549 cells; test: Trans-well cell migration assay; format: cell-based, Human; conditions: 30 or 40 μg/mL
Protocol: Tumor cell migration was assayed in trans-well chambers (Millipore) according to the method reported by Huang et al. (Lai, K. C.; Huang, A. C.; Hsu, S. C.; Kuo, C. L.; Yang, J. S.; Wu, S. H.; Chung, J. G. Benzyl isothiocyanate (BITC) inhibits migration and invasion of human colon cancer HT29 cells by inhibiting matrix metalloproteinase-2/-9 and urokinase plasminogen (uPA) through PKC and MAPK signaling pathway. J. Agric. Food Chem. 2010, 58, 2935-2942), with some modifications. Briefly, trans-well chambers with 6.5 mm polycarbonate filters of […] pore size were used. A549 cells (1×10^4 cells/mL) and 20, 30 or 40 μg/mL of dihydroaustrasulfone alcohol were suspended in F-12 (100 μL, serum free), placed in the upper trans-well chamber, and incubated for 24 h at 37° C. Then, the cells on the upper surface of the filter were completely wiped away with a cotton swab, and the lower surface of the filter was fixed in methanol, stained with 10% Giemsa solution, and counted under a microscope at a magnification of 200×. For each replicate, the tumor cells in 10 randomly selected fields were determined and the counts were averaged.

[11] = system: A549 cells; test: Flow cytometry analysis of cell cycle and apoptosis (sub-G1); format: cell-based, Human; conditions: 20 and 40 μg/mL, treatment for 24 h
Protocol: A549 cells (2×10^5) were seeded into each well of a 12-well plate (TPP; Techno Plastic Products AG, Trasadingen, Switzerland) 24 h before being treated with various concentrations of dihydroaustrasulfone alcohol for 24 h. The cells were harvested with trypsin-EDTA, washed twice with 10 mL ice-cold PBS, fixed in 70% (v/v) ethanol, and kept at 4° C. The cells were then stained with propidium iodide (PI) [100 μg/mL PI, 0.2% (v/v) Nonidet P-40, and 1 mg/mL RNase A (DNase-free) in PBS lacking Ca^2+ and Mg^2+ at a 1:1:1 ratio by volume] and the DNA contents were analyzed with flow cytometry (Becton Dickinson, San Jose, Calif., USA). The intensity of PI fluorescence was linearly amplified, and both the area and width of the fluorescence pulse were measured. Ten thousand events were acquired, and the percentage of hypodiploid (apoptosis, sub-G1) events and the percentages of cells in the G0/G1, S and G2/M phases were determined using the DNA analysis software ModFitL T, version 2.0 (Verity Software, Topsham, Me., USA).

[12] = system: Lewis lung carcinoma (LLC); test: Lewis lung carcinoma-bearing tumor model, tumor size; format: in vivo, C57BL/6J mice; conditions: 8 or 16 mg/kg IP daily, 14-day treatment
Protocol: as §3

[13] = system: PI3K; test: Western blotting in A549 cells, PI3K protein level; format: cell-based, Human; conditions: A549 cells, 20, 30, or 40 μg/mL, 24 h
Protocol: as §1

Structure (SMILES): CC(=O)CCS(=O)(=O)CCO [dihydroaustrasulfone alcohol]
- phosphorylation of JNK1/2 [1]: inhibited
- activity of MMP-9 [2]: significantly inhibited
- phosphorylation of AKT [3]: decrease in the phosphorylation
- cell viability ([4]; 60, 80, and 100 μg/mL, 24 h): significantly suppressed
- IC50 ([4]; Homo sapiens, A549, 24 h, read-out: IC50, viability of A549 cells): 273 µM
- body weights compared with the LLC control group [5]: not significantly different
- phosphorylation of ERK1/2 [6]: inhibited
- migration of A549 cells (wound healing) [7]: significantly decreased
- phosphorylation of FAK [8]: reduced phosphorylation of FAK
- activity of MMP-2 [9]: significantly inhibited
- migration of A549 cells (trans-well) [10]: significantly decreased
- apoptosis in the sub-G1 phase [11]: no effect
- tumor size compared with the LLC control group [12]: significantly reduced
- protein levels of PI3K [13]: inhibited the protein levels of PI3K in a dose-dependent manner
